This is an account of results in patent US7365096B2, “Methods for selectively inhibiting Janus tyrosine kinase 3 (Jak3)” (Board of Regents, The University of Texas System, priority 2002, dated 2008).

The structures appear in SMILES notation.

Series [1] has as its system T-cell proliferation mediated by TCGFs. To be noted: cited from earlier work.
For series [2], the target named is T1, Jak3 (Homo sapiens, UniProt P52333).
T1 sequence (P52333 1-1124): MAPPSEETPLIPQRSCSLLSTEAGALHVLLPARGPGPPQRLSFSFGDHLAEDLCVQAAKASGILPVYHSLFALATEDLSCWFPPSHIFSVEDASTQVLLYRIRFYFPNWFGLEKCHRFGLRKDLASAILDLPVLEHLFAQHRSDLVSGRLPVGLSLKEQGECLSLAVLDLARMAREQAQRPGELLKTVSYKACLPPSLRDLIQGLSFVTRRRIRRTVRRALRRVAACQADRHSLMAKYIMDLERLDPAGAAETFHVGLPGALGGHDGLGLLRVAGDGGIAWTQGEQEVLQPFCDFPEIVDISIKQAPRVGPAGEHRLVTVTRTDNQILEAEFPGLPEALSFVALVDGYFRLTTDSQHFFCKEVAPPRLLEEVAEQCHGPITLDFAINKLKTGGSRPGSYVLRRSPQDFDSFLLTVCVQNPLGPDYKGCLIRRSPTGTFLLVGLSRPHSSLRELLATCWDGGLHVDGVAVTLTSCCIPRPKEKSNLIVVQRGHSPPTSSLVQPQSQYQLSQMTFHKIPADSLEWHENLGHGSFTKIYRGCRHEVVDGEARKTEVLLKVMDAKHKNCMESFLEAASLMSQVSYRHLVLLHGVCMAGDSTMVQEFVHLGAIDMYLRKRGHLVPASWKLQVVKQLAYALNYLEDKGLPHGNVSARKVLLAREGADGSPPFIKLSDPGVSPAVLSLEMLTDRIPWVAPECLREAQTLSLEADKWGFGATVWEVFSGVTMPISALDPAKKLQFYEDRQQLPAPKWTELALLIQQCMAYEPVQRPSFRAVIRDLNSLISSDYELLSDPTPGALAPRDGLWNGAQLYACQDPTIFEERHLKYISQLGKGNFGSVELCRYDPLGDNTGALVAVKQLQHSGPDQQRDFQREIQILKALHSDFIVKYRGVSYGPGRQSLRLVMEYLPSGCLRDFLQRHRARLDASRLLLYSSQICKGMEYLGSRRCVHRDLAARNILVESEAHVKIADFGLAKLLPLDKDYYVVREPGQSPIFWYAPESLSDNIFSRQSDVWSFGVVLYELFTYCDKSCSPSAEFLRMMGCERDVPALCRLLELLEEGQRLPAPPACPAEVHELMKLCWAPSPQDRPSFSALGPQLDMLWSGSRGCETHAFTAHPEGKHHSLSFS
The conditions noted are these: cited from earlier work.

For series [3], the target named is p56Lck (Homo sapiens, UniProt P06239). The conditions noted are these: cited from earlier work.
For series [4], the target named is T2, Zap70 (Homo sapiens, UniProt P43403).
T2 sequence (P43403 1-619): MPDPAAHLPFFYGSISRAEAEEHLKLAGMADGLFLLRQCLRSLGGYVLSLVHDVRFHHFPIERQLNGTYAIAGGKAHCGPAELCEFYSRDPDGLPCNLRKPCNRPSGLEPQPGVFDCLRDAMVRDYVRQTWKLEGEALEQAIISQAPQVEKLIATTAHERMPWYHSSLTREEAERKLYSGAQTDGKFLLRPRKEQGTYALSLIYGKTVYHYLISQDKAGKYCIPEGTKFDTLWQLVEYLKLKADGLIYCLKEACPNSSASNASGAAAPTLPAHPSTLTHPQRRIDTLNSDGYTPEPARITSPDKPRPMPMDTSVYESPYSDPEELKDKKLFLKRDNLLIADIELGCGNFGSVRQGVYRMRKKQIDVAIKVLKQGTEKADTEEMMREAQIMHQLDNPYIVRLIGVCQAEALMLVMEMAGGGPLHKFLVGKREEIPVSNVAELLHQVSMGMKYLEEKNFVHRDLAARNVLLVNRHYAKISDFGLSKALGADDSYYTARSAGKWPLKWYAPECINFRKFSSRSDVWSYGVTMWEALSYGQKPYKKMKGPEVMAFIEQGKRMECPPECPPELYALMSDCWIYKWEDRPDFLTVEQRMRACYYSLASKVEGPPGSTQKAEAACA
To be noted: cited from earlier work.

The target in series [5] is Lck (Homo sapiens, UniProt P06239). To be noted: cited from earlier work.
Series [6] addresses Lyn (Homo sapiens, UniProt P07948). The conditions noted are these: cited from earlier work.
Series [7] addresses Btk (Homo sapiens, UniProt Q06187). The conditions noted are these: cited from earlier work.
Series [8] deals with Syk (Homo sapiens, UniProt P43405). The conditions noted are these: cited from earlier work.
For series [9], the target named is Src (Homo sapiens, UniProt P12931). To be noted: cited from earlier work.
For series [10], the target named is Jak1 (Homo sapiens, UniProt P23458). The conditions noted are these: cited from earlier work.
Series [11] addresses Tyk2 (Homo sapiens, UniProt P29597). To be noted: cited from earlier work.
The test system of series [12] is Jak. To be noted: cited from earlier work.
The subject of series [13] is graft infiltrating mononuclear cells (GICs). To be noted: rat, in vivo; cited from earlier work.
The test system of series [14] is γc/Jak3-dependent PHA-activated human T cells. Put plainly: Proliferation of PHA-activated human T cells ([3H]-thymidine). To be noted: for proliferation of PHA-activated human T cells following stimulation with IL-2 (FIG. 7A): IL-2 stimulated. The format is cell-based. The procedure:
Cell culture and treatment. The rat T-cell line Nb2-11c, originally developed by Dr. Peter Gout (Vancouver, Canada), was grown in RPMI-1640 with 10% fetal calf serum (Intergen, cat. no. 1020-90), 2 mM L-glutamine, 5 mM HEPES, pH 7.3, and penicillin-streptomycin (50 IU/ml and 50 μg/ml, respectively), at 37° C./5% CO2. Freshly explanted normal human T lymphocytes purified by isocentrifugation (Ficoll®; EM Science, Gibbstown, N.J.) were phytohemagglutinin (PHA)-activated for 72 hours as previously described.^23 T lymphocytes were made quiescent by washing and incubating for 24 hours in RPMI-1640 medium containing 1% fetal calf serum before exposure to cytokines. […] The Mannich base 649641P (NC1153) was generously provided by Dr. Jonathan Dimmock College of Pharmacy, University of Saskatchewan, Saskatoon, Saskatchewan, Canada. All cells were then stimulated with 1 nM recombinant human IL-2 (Hoffman-LaRoche, Basel, Switzerland), IL4 or IL7 (PeproTech), or ovine prolactin (PRL) supplied by the National Hormone and Pituitary Program, National Institute of Diabetes, Digestive, and Kidney Disease (Bethesda, Md.), at 37° C. Cell pellets were frozen at −70° C.
Proliferation assays. Quiescent human primary T-cells, YT or rat Nb2-11c T-cells (5.0×10^4/well) were plated in flat-bottom, 96-well microtiter plates in 200 μl of quiescent media in the absence or presence of 1 nM IL-2, -4, -7 (PeproTech, Rock Hill, N.J.), or PRL. Next, cells were treated for 16 hours with the Mannich base drug and then pulsed for 4 hours with [^3H]-thymidine (0.5 μCi/200 μl) and harvested onto fiberglass filters. [^3H]-thymidine incorporation was analyzed by liquid scintillation counting as previously described,^23 or using standard techniques that are well known in the art.

Series [15] concerns Jak3 mediated T-cell growth. The conditions noted are these: cited from earlier work.
In series [16] the target is T1, Jak3. To be noted: cited from earlier work. The source holds these as a separate data set.
In series [17] the test system is allograft. To be noted: in vivo; cited from earlier work.
The conditions of series [18]: rat, in vivo.

p56Lck, sequence (P06239 whole entry, species assumed): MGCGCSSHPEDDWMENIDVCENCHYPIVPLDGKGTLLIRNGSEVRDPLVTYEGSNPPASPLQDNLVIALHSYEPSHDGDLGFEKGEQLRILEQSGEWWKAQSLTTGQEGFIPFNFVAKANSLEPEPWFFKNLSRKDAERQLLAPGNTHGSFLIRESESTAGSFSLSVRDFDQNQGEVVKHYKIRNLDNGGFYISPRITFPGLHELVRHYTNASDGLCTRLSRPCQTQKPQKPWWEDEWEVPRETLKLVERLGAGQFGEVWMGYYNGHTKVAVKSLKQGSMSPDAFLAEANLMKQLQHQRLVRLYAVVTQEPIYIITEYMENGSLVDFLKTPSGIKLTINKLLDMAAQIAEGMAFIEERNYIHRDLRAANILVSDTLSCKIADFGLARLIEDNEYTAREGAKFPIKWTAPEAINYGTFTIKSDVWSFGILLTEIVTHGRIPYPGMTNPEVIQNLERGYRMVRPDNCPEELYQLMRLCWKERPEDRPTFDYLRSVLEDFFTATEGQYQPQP
Jak1, sequence (P23458 whole entry, species assumed): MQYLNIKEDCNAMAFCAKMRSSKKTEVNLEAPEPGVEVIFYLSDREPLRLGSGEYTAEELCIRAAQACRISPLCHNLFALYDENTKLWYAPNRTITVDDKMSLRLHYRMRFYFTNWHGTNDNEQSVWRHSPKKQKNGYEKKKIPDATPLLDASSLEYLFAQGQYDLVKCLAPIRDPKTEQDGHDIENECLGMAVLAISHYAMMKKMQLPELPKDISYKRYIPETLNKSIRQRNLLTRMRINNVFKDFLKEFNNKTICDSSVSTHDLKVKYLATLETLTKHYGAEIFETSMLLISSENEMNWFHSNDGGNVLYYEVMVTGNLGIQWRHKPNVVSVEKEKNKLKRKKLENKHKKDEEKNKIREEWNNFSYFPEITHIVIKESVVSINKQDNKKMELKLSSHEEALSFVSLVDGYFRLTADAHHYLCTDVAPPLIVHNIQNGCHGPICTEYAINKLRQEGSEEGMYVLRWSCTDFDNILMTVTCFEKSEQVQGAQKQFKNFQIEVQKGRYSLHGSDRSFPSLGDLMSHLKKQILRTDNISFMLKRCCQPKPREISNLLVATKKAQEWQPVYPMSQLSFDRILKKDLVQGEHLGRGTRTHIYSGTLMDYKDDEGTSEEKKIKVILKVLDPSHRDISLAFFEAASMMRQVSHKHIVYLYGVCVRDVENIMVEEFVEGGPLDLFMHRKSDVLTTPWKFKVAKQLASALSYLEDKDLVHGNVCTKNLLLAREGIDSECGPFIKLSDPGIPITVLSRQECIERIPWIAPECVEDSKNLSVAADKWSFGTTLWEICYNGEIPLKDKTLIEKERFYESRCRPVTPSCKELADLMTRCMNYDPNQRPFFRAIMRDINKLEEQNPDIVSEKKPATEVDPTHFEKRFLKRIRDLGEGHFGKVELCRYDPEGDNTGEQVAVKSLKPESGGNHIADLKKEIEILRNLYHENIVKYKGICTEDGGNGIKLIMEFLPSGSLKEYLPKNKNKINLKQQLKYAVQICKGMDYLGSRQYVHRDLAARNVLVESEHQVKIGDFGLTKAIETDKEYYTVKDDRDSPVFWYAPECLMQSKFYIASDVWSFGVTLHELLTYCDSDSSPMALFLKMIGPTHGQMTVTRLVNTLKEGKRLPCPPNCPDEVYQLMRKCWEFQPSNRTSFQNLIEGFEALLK
Lck, sequence (P06239 whole entry, species assumed): as the sequence (P06239 whole entry, species assumed) above
Lyn, sequence (P07948 whole entry, species assumed): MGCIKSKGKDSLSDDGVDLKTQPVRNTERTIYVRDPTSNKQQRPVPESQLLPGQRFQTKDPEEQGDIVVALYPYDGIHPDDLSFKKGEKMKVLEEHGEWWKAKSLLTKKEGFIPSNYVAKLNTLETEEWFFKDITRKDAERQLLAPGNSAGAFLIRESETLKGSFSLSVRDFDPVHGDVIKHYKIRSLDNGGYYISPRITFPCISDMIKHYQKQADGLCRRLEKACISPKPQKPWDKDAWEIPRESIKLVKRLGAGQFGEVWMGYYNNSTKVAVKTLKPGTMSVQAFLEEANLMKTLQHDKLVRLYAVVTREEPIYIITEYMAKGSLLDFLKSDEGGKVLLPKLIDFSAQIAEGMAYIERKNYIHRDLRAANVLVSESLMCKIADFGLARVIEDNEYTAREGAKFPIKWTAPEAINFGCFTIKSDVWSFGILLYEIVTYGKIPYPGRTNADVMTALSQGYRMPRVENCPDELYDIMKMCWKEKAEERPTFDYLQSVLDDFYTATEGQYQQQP
Src, sequence (P12931 whole entry, species assumed): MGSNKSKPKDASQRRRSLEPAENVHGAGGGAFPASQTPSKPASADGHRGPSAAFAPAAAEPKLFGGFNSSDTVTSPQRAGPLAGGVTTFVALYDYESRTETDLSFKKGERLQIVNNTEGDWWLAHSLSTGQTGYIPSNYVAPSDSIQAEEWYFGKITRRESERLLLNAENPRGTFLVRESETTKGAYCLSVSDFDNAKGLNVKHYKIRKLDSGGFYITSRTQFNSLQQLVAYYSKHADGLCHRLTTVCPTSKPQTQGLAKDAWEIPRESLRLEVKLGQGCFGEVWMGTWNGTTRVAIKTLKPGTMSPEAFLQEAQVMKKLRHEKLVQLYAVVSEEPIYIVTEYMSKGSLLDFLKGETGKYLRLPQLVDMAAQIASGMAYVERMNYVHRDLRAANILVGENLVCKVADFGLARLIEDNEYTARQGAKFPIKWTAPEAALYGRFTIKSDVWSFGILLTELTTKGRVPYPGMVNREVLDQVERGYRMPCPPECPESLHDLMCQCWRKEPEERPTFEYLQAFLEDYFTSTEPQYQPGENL
Tyk2, sequence (P29597 whole entry, species assumed): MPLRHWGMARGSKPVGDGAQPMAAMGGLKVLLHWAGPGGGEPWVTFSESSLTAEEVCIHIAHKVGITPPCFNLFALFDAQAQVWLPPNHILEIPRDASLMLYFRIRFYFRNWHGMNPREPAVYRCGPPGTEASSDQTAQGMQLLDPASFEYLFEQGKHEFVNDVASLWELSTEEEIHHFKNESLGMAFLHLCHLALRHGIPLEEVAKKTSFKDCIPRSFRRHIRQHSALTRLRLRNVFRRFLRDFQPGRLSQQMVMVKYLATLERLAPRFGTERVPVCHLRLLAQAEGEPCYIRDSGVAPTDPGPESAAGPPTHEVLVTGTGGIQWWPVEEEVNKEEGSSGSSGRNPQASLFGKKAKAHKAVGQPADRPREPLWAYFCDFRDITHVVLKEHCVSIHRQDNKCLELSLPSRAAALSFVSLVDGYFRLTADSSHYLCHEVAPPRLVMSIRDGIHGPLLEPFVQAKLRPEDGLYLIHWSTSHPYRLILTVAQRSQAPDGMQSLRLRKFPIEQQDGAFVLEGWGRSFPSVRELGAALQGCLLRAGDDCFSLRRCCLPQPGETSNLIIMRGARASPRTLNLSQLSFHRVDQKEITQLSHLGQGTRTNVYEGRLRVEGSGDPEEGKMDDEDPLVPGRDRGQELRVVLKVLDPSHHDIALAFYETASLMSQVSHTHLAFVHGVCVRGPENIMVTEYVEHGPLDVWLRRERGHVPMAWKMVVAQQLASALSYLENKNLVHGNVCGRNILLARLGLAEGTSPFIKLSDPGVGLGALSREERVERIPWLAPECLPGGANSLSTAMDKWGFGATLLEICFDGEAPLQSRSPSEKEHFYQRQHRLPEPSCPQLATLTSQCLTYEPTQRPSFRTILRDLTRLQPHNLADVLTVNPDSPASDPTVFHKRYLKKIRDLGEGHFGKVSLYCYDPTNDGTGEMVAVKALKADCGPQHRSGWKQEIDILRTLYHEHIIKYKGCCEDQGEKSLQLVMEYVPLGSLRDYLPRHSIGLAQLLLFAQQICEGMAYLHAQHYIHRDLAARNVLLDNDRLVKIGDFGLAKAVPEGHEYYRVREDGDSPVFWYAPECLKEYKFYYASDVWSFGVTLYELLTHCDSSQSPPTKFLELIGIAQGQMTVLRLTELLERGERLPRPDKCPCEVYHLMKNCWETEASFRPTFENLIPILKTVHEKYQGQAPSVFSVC
Btk, sequence (Q06187 whole entry, species assumed): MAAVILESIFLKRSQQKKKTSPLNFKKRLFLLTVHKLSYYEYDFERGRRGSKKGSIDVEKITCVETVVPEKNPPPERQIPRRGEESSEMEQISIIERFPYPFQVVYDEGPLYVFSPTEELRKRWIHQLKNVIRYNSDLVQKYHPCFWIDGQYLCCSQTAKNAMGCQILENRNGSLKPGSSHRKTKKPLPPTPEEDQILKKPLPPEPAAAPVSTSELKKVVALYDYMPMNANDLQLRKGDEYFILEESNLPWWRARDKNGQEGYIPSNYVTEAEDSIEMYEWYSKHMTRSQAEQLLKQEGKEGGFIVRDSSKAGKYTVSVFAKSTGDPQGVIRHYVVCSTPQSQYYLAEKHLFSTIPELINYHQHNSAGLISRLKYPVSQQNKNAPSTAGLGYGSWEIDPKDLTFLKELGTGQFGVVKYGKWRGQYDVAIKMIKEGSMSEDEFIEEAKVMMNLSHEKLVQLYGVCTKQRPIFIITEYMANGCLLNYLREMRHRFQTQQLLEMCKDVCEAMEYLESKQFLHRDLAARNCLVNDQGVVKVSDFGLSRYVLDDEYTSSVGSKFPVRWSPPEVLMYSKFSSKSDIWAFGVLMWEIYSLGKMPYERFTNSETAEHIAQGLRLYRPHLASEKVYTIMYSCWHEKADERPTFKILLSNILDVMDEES

For `N#C/C(=C\c1ccc(O)c(O)c1)C(=O)NCc1ccccc1` [AG-490], the “T-cell proliferation mediated by TCGFs” value in series [1] is “competent to inhibit”. Besides, in series [2], the Jak3 autokinase activity entry was “competent to inhibit”. In addition, the “effect on p56Lck” value in [3] is on record as “neither of those two agents affects”. Besides, the “effect on Zap70” value in series [4] is listed as “neither of those two agents affects”. The “inhibition of Lck” value in [5] is “does not inhibit”. Also, the “inhibition of Lyn” value in [6] is listed as “does not inhibit”. Moreover, the “inhibition of Btk” value in [7] is on record as “does not inhibit”. The “inhibition of Syk” value in series [8] is on record as “does not inhibit”. Also, the “inhibition of Src” value in series [9] was “does not inhibit”. Besides, the “inhibition of Jak1” value in series [10] is given as “does not inhibit”. For the same compound, the “inhibition of Tyk2” value in series [11] is on record as “does not inhibit”. Also, in series [12], the “effects on closest related family member Jak” value is recorded as “exert similar effects”. In series [13], the “IL2Rα expression (ribonuclease protection assays)” value was “failed to affect”, the “Stat5a/b DNA binding of ex vivo IL-2 stimulated GICs” value is recorded as “reduced” and the “graft infiltration of mononuclear cells (GICs)” value was “reduced”.
Take `CCCCCCCCCCCC1C=C/C(=C/c2[nH]c(-c3ccc[nH]3)cc2OCc2ccccc2)N1.Cl` (stereo not drawn) [PNU156804]: the IC50 in [14] (Homo sapiens, IL-2 driven T-cell growth, 16 hours drug, [3H]-thymidine, read-out: IC50, disrupting cell growth) is roughly 10 µM. For the same compound, the “T-cell proliferation mediated by TCGFs” value in series [1] was “competent to inhibit”. The Jak3 autokinase activity entry in series [2] is reported as “competent to inhibit”. Also, in [3], the “effect on p56Lck” value is “neither of those two agents affects”. Besides, the “effect on Zap70” value in [4] is reported as “neither of those two agents affects”. In addition, in series [15], the “inhibition of Jak3 mediated T-cell growth by IL-2 compared to prolactin (Jak2)” value is “greater specificity”. Besides, in [16], the “Jak3 autophosphorylation as compared with Jak2” value is listed as “preferentially inhibited”. In series [17], the allograft survival entry is reported as “prolongs allograft survival”, the “interaction with CsA” value is given as “synergistically” and the “interaction with RAPA” value is “additively”.
Regarding `CO[C@H]1C[C@@H]2CC[C@@H](C)[C@@](O)(O2)C(=O)C(=O)N2CCCC[C@H]2C(=O)O[C@H]([C@H](C)C[C@@H]2CC[C@@H](O)[C@H](OC)C2)CC(=O)[C@H](C)/C=C(\C)[C@@H](O)[C@@H](OC)C(=O)[C@H](C)C[C@H](C)/C=C/C=C/C=C/1C` [RAPA, rapamycin, reference compound], the “peripheral blood counts (PBC)” value in series [18] is recorded as “reduced PBC compared to untreated rats, in contrast to SRL”.
With `COc1cc(C2C(C(=O)Nc3ccc(Cl)c(Cl)c3)=C(C)NC(C)=C2C(=O)Nc2ccc(Cl)c(Cl)c2)ccc1O` [compound 637712], in [14], the “proliferation of PHA-activated human T cells following stimulation with IL-2 (FIG. 7A)” value was “blocked”.
Still for that read-out and setting: for `N#CCCN(CCC#N)c1ccc(C(Sc2ccccc2)C(NC(=O)c2cc([N+](=O)[O-])ccc2Cl)C(=O)Sc2ccccc2)cc1` (stereo not drawn) [compound 640674] the value was “blocked”.
Still for that read-out and setting: for `CC1(C)c2ccccc2N2O[C@@H]3C(=O)N(c4ccccc4)C(=O)[C@@H]3C21c1ccccc1` (stereo partly drawn) [compound 643423] the value was “blocked”; for `CCCCCCCC(=O)OCC(C[As](=O)(O)O)OC(=O)CCCCCCC` (stereo not drawn) [compound 655906], “blocked”; for `CC(=O)Oc1ccc2cc(-c3ccccc3OC(C)=O)c(=O)oc2c1` [compound 673137], “blocked”.
On the same count and under the same terms, in the case of `O=C1c2ccccc2C(=O)[C@@]23O[C@@]12C1(Oc2cccc4cccc(c24)O1)[C@@H]1O[C@@H]1[C@@H]3O` [compound 683332] it was “blocked”.
Turning to `Cc1oc2c(c1C)S(=O)(=O)C(C#N)C(c1ccccc1)N2` (stereo not drawn) [compound 693812], the “proliferation of PHA-activated human T cells following stimulation with IL-2 (FIG. 7A)” value in series [14] is given as “blocked”.

One may read the IC50 as the concentration that inhibits the measured activity by half.
